According to paper PMC5609566, “Elucidation of antimicrobial activity and mechanism of action by N-substituted carbazole derivatives” (Bioorganic & Medicinal Chemistry Letters, 2017):
Converted amounts (≈) assume the structure as drawn.

Columns and labels:
[1] = system: S. cerevisiae; assay: Fungal growth inhibition, library hits; format: cell-based; settings: Saccharomyces cerevisiae, baker yeast
Protocol: (§1) Compound hits from the library screening were evaluated against baker yeast S. cerevisiae and C. albicans (ATCC 90028). The minimum inhibitory concentration (MIC) was defined as the lowest concentration inhibiting visual growth of the microorganism and this was determined in triplicate. Standard errors were typically less than 5%. MICs for synthesized compounds were determined on the following fungal isolates: Saccharomyces cerevisiae (ATCC 9763), Candida albicans (SC5314), Candida krusei (ATCC 6258), Candida glabrata (ATCC 90030), Aspergillus flavus (ATCC MYA-1005) and Aspergillus fumigatus (ATCC 13073), which were purchased from American Type Culture Collection, and C. glabrata strain Cg003, which was kindly provided by Julius Subik, Comenius University in Bratislava, Slovak Republic. Cg003 is a clinical isolate, characterized to be resistant to fluconazole and itraconazole due to overexpression of the multidrug resistance efflux pumps Cdr1p and Cdr2p^5. The fungal growth assay was performed as described in Kjellerup et al., 2017^6.

[2] = system: C. albicans (ATCC 90028); assay: Fungal growth inhibition, library hits; format: cell-based
Protocol: as §1

[3] = molecular target: T1, S. cerevisiae H^+-ATPase (Saccharomyces cerevisiae, UniProt P05030); assay: Colorimetric ATPase assay (ATP hydrolysis), S. cerevisiae plasma membranes; format: biochemical; settings: initial hit compounds, Table 1
T1 construct: transformed with the full-length cDNA of the S. cerevisiae plasma membrane H^+-ATPase isoform PMA1; made in house; host or cells: S. cerevisiae RS72
T1 sequence (P05030 whole entry, canonical isoform): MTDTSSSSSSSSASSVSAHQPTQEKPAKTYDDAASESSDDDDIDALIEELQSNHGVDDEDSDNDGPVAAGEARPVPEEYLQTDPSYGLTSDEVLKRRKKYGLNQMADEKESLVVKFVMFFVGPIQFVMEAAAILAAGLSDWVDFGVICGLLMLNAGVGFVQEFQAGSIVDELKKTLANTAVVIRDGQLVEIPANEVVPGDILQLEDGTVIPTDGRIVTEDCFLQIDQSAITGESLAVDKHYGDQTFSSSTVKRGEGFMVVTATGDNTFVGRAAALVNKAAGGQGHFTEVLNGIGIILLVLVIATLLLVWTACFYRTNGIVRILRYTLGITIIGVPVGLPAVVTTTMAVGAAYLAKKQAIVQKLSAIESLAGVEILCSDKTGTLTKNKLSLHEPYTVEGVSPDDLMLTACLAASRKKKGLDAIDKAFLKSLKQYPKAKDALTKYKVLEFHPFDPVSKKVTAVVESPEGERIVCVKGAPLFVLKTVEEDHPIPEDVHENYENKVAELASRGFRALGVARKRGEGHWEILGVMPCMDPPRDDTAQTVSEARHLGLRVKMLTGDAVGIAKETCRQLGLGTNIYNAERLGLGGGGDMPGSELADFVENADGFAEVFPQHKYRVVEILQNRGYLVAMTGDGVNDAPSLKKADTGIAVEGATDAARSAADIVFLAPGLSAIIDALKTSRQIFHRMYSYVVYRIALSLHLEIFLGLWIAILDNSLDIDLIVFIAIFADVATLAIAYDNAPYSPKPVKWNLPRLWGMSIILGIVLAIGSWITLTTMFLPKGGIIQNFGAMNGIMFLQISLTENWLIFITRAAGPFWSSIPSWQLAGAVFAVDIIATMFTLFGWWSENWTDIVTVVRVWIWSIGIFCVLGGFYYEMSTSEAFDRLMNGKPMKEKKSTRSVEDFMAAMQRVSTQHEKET
Excerpt: To investigate the H^+-ATPase inhibitory effect of the compounds we isolated plasma membranes containing H^+-ATPase from S. cerevisiae and C. albicans cells.[15] Plasma membranes isolated from pig kidney as well as endoplasmic reticulum membranes from rabbit hind leg muscle were used to counter-screen compounds for activity against mammalian Na^+,K^+-ATPase and Ca^2+-ATPase, respectively. Prior to their use, fungal plasma membrane batches were validated by determining the maximum ATP hydrolysis activity, the pH optimum of the ATPase activity, and the sensitivity to inhibition by orthovanadate. ATPase activity was determined by a colorimetric assay that measures the amount of inorganic phosphate liberated over time, as described in Kjellerup et al., 2017.[15] Table 2, Table 3, Table 4 list the IC50 values obtained by measuring the concentration dependence of the ATPase activity for the fifteen carbazole compounds with each of the four membrane preparations.
Pma1-containing plasma membranes were prepared from S. cerevisiae RS72 yeast cells that had been transformed with the full-length cDNA of the S. cerevisiae plasma membrane H^+-ATPase isoform PMA1 under control of the PMA1 promoter, using the same procedure as described in Kongstad et al., 2014^1. For the preparation of C. albicans membranes, a 100 ml overnight culture grown in YPD (10 g/L yeast extract (BD, Sparks, MD), 20 g/L Bacto peptone (BD), 20 g/L D-(+)-glucose) was transferred to 1 L YPD and grown for a further 7 h at RT with agitation (150 rpm), followed by cell harvesting and subsequent membrane preparation using the same procedure as described in Kongstad et al., 2014^1. […] Rabbit sarcoplasmic reticulum membranes containing Sarco/Endoplasmic Reticulum Ca^2+ ATPase (SERCA) were kindly provided by Dr. Claus E. Olesen and Dr. Jesper V. Møller, Aarhus University and prepared as described in Andersen et al., 1985^2. Pig kidney Na^+,K^+-ATPase was kindly provided by Dr. Natalya Fedosova, Aarhus University and prepared as described in Klodos et al., 2002^3.
The compound libraries were purchased from Enamine Ltd, Ukraine and Chembridge Corp, USA. ATPase activity was determined by measuring the amount of liberated phosphate from ATP hydrolysis. […] Reactions were initiated by the addition of Na-ATP to a final concentration of 2.5 mM (Pma1 and Na^+,K^+-ATPase) or 5 mM (SERCA), followed by 30 minutes incubation at 30 °C. The amount of liberated phosphate was determined colorimetrically after addition of STOP solution (mixture of L-ascorbic acid, ammonium heptamolybdate tetrahydrate, and HCl to give final concentrations of 65 mM, 2.2 mM, and 189 mM, respectively) with 5 minutes incubation at room temperature (RT) followed by addition of arsenite solution (mixture of NaAsO2, sodium citrate dihydrate, and acetic acid to give final concentrations of 3.1 mM, 28 mM, and 141 mM, respectively). Absorption was measured at 860 nm after an additional 30 minutes incubation at RT.

[4] = system: S. cerevisiae; assay: Extracellular acidification assay; format: cell-based; settings: Saccharomyces cerevisiae, mean ± SEM n = 3
Excerpt: (§2) It was subsequently evaluated whether or not the carbazoles were able to prevent extracellular acidification of the surrounding media by blocking the pumping activity of the H^+-ATPase within fungal cells.[15] […] The H^+-ATPase requires ATP to transport protons out of fungal cells. Consequently, a decrease in intracellular ATP (iATP) levels will indirectly affect H^+-ATPase activity. […] In all cases, iATP levels were […] in C. albicans cells exposed to carbazoles compared to the untreated control. […] This implies that the carbazoles need to pass the fungal membrane to inhibit the H^+-ATPase and 7, 18 and 19 may have reduced membrane permeability.
(§3) The ability of S. cerevisiae and C. albicans to acidify the media upon glucose addition was evaluated using the pH sensor dextran (40,000MW)-fluorescein-isothiocyanate as described in Kjellerup et al., 2017^6. Briefly, the cells was starved overnight in 50 mM KCl, pH 6.7 at 4 °C. The cell suspension (Final OD600 of 0.19) was mixed with 1.3 µg/ml dextran (40,000MW)-fluorescein-isothiocyanate, 1.5 % DMSO containing inhibitors and the assay initiated with the addition of 2 % D-(+)-glucose. The rate of media acidification was calculated based on the slope of the fluorescent drop in the first 12 minutes after glucose addition.

[5] = system: C. albicans; assay: Extracellular acidification assay; format: cell-based; settings: Candida albicans, mean ± SEM n = 3
Excerpt: as §2, §3

[6] = system: C. albicans cells; assay: Intracellular ATP determination; format: cell-based; settings: compound at 20 µM, 30 minutes, mean ± SEM n = 5
Excerpt: as §2
C. albicans cells were transferred to 3 ml of YPD media and grown overnight at 30 °C and 150 rpm. The cells were pelleted at 2000 × g for 2 min. and washed in PBS (Sigma-Aldrich, catalog number 8537) twice before re-suspension to an OD600 of 0.1. Cell suspension (98 µL) and 2 µl compound in DMSO were incubated for 30 minutes at RT. Forty microliters of this suspension was then transferred to a black 96-well plate containing 40 µl BacTiterGlo reagent (Promega, Madison, WI) and the plate was incubated for 15 minutes in the dark at room temperature. Luminescence was read on a SpectraMax X5 (Molecular Devices, Sunnyvale, CA) plate reader with 10 s shake and 0.5 s integration time. A standard curve containing 10, 100 and 1000 nM ATP was prepared for every experiment.

Row | Compound | MIC [1] [µM] | MIC ([2]; ATCC 90028, library hits) [µM] | IC50 [3] [µM] | MIC ([2]; Candida albicans, ATCC90028, ATCC 90028, library hits) [µM] | IC50 [4] [µM] | IC50 [5] [µM] | iATP [6] [nM]
1 | OC(CN1CCCCCC1)Cn1c2ccccc2c2ccccc21 (stereo not shown) [Compound 1] | > 200 | >200 | 18.8 ± 7.3 |  |  |  | 
2 | CC(C)CCOCC(O)Cn1c2ccccc2c2ccccc21 (stereo not shown) [Compound 2] | 50 (≈ 15.6 µg/mL) | >200 | 5.5 ± 0.7 |  |  |  | 
3 | Oc1ccccc1Cn1c2ccccc2c2ccccc21 [Compound 3] | 50 (≈ 13.7 µg/mL) | 100 (≈ 27.3 µg/mL) | 9.7 ± 0.6 |  |  |  | 
4 | OC(CN1CCCC1)Cn1c2ccc(Cl)cc2c2cc(Cl)ccc21 (stereo not shown) [Compound 4] | 10 (≈ 3.63 µg/mL) | 30 (≈ 10.9 µg/mL) | 17.3 ± 5.5 | ≥ 30 |  |  | 
5 | C[C@@H](c1ncncc1F)[C@](O)(Cn1cncn1)c1ccc(F)cc1F [Voriconazole, reference compound] |  |  |  |  | > 75 | > 75 | 37 ± 19
